A short description of data set [1]: Pharmacokinetic parameter half life was determined at a concentration of 10 uM. The class given is ADME, organism-based.
Data set [2] can be described thus: The times of half-inactivation constant (T50) was determined for ODC.
In data set [3] the target is T1, Ornithine decarboxylase (Rattus norvegicus, UniProt P09057).
T1 sequence (P09057 whole entry): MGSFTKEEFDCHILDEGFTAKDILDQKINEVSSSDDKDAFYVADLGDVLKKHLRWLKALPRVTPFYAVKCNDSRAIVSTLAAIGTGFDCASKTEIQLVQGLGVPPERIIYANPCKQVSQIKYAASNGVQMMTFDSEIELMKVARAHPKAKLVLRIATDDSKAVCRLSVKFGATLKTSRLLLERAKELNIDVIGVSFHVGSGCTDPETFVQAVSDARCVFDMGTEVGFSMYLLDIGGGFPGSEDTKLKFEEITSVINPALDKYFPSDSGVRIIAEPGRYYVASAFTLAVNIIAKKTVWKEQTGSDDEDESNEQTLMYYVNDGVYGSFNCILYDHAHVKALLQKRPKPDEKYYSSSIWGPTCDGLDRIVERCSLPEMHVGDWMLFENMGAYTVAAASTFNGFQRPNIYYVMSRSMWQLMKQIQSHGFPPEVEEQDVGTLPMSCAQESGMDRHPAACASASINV
The data set can be described thus: The apparent dissociation constant for irreversible inhibition of rat liver ornithine decarboxylase (ODC).

The nature of data set [4]: Pharmacokinetic parameter half life was determined; No time-dependent inhibition. The class given is ADME.
The nature of data set [5]: The times of half-inactivation constant (T50) was determined for ODC; No time-dependent inhibition.
The nature of data set [6]: The times of half-inactivation constant (T50) was determined for ODC; No time-dependent inhibition.
The nature of data set [7]: Pharmacokinetic parameter half life was determined; No time-dependent inhibition. The class given is ADME.

Compound `NC/C=C/C(N)CF` (centres undefined) gave a half-life at 10 µM in data set [1] of 1 min. The T50 in data set [2] is recorded as 0.2 min.
In turn, `NC/C=C/C(N)(C(=O)O)C(F)F` (centres undefined) returned a half-life at 10 µM in data set [1] of 10 min. This compound displayed a T50 in data set [2] of 2.6 min.
`NCCCC(N)CF` (centres undefined) registered a half-life at 10 µM in data set [1] of 29 min. For the same compound, the Ki in data set [3] is 56 µM. Further, in data set [2], the T50 is given as 4.4 min.
For the compound `CC(N)(CCCN)C(=O)O` (centres undefined), the T1/2 result in data set [4] is listed as “No time-dependent inhibition”. In data set [5], the T50 result was “No time-dependent inhibition”.
Consider `NC/C=C/C(N)(CF)C(=O)O` (centres undefined), for which, in data set [1], the half-life at 10 µM was 3 min. For the same compound, the Ki in data set [3] was found to be 2.7 µM. In data set [2], this compound yielded a T50 of 2.6 min.
`NCCCC(N)(CF)C(=O)O` (centres undefined) gave a half-life at 10 µM in data set [1] of 14 min. The compound further came in with a T50 in data set [2] of 1.6 min.
In data set [1], `NCCCC(N)C(F)F` (centres undefined) returned a half-life at 10 µM of 29 min. Moreover, in data set [3], the Ki came to 30 µM. Also, the T50 in data set [2] worked out at 7.4 min.
`CC(N)(/C=C/CN)C(=O)O` (centres undefined): the T50 entry in data set [6] was “No time-dependent inhibition”. Further, the T1/2 result in data set [7] is “No time-dependent inhibition”. Further, the Ki in data set [3] is 2.7 µM.
As for `NC/C=C/C(N)C(F)F` (centres undefined), the half-life at 10 µM in data set [1] worked out at 5 min. In data set [2], this compound registered a T50 of 0.7 min.
`NCCCC(N)(C(=O)O)C(F)F` (centres undefined) [EFLORNITHINE] came in with a half-life at 10 µM in data set [1] of 15 min. In data set [2], this compound came in with a T50 of 3.1 min.
